The source of these data is patent US9084806B2, “Hypoxia-responsive nanoparticle for therapy and imaging of hypoxia-involving diseases” (RESEARCH & BUSINESS FOUNDATION SUNGKYUNKWAN UNIVERSITY, priority 2012, dated 2015).

The conditions of series [1]: cited from earlier work.
The subject of a further series is SCC7 cells. Briefly: In vitro cytotoxicity, MTT assay. The class given is cell-based. Conditions: 24 h, various concentrations. As for the experimental part:
To evaluate in vitro cytotoxicity of HR-NPs, they were exposed to the SCC7 cells for 24 h at 37° C., after which the cell viability was measured using the MTT assay (FIG. 6a).
SCC7 (squamous carcinoma) cell lines, obtained from the American Type Culture Collection (Rockville, Md., USA), were cultured in RPMI 1640 medium (Gibco, Grand Island, N.Y., USA) containing 10% (v/v) fetal bovine serum and 1% (w/v) penicillin-streptomycin at 37° C. in a humidified 5% CO2-95% air atmosphere. The cells were seeded at a density of 1 104 cells/well in 96-well flat-bottomed plates. After one day of growth, the cells were washed twice with a PBS (pH 7.4) and incubated for 24 h with various concentrations of free DOX or DOX-HR-NPs (HR-NP8 and HR-NP11) under the hypoxic or normoxic condition. The cells were then washed twice with a PBS (pH 7.4) and the fresh culture medium was added. Twenty microliters of 3-(4,5-dimethylthiazol-2-yl)-2,5-diphenyltetrazolium bromide solution (5 mg/ml in PBS) were added to each well, and the cells were incubated for an additional 4 h at 37° C. Subsequently, the medium was removed, and the cells were dissolved in DMSO. The absorbance at 570 nm was measured using a microplate reader (BioTek, Seoul, Korea).
Background: Tetrazolium assays rely on reduction of a dye to a coloured formazan, in cell work by metabolically active cells.

The next series relates to SCC7 cancer xenografts. Briefly: In vivo antitumor efficacy. Conditions: DOX dose 5 mg/kg, once every three days. Also on record: species or system mice. As for the experimental part:
To evaluate the anti-tumor efficacy of HR-NPs, SCC7 tumor bearing mice were prepared, as previously described. Mice were divided into three groups: (i) normal saline (ii) free DOX at 5 mg/kg, and (iii) DOX-HR-NP11 at 5 mg DOX/kg. When tumors reached 8 mm in diameter, each sample was injected once every three days. Tumor volumes were calculated as a×b^2/2, were a was the largest and b the smallest diameter. The statistical significance of differences (p<0.05) between groups tested was determined using one-way ANOVA test.

Entries after “also recorded” stand apart in the source; their conditions may differ.

Take `Nc1ncc[nH]1` [2-aminoimidazole]: the solubility in water result in series [1] is “readily dissolving in water; also recorded: highly water-soluble”.

On to `O=[N+]([O-])c1ncc[nH]1` [2-nitroimidazole], for which the solubility in water result in series [1] is on record as “poorly soluble in water”.

As to `COc1cccc2c1C(=O)c1c(O)c3c(c(O)c1C2=O)C[C@@](O)(C(=O)CO)C[C@@H]3O[C@H]1C[C@H](N)[C@H](O)[C@H](C)O1` [free DOX, doxorubicin], in the series with SCC7 cells, the “cytotoxicity in the hypoxic condition compared with the normoxic condition” value is given as “comparable”. In the series on SCC7 cancer xenografts, the “change in tumor volume” value is “considerable increase”.
